Here are results for 21 compounds from patent US8784782B2 (Senomyx, Inc., priority 2005, dated 2014).

Where two headings read alike, the source gives them in different places.

Data set [1] has as its target T1, hT1R1/hT1R3 umami receptor expressed in an HEK293 cell line (Homo sapiens, UniProt Q7RTX0+Q7RTX1).
T1 construct: expressed in transfected cells; host or cells: HEK293 cell line derivative, hT1R1/hT1R3-HEK293-Gα15, clone I-17, mifepristone-induced
T1 sequence (Q7RTX1 21-841): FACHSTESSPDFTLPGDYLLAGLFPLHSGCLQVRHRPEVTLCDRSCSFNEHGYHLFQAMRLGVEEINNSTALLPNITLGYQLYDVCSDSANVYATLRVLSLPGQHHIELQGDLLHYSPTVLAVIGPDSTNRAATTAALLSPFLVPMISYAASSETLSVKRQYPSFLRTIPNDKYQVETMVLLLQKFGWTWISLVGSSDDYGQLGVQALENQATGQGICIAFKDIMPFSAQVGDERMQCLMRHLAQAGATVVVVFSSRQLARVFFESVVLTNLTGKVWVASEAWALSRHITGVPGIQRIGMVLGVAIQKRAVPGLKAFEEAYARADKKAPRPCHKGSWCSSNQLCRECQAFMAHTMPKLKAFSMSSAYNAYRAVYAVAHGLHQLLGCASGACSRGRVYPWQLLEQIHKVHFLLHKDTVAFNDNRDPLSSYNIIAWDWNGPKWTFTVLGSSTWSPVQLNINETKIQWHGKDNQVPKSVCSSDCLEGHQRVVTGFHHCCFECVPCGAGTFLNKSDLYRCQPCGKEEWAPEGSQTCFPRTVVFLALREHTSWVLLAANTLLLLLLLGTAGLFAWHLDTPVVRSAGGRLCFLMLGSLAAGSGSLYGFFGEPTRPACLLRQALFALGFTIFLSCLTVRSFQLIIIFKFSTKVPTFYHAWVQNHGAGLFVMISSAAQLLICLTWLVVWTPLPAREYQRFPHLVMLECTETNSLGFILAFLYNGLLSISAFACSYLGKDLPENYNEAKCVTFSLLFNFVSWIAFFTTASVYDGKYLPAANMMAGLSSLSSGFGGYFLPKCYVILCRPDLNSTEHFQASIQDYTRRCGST
T1 sequence (Q7RTX0 21-852): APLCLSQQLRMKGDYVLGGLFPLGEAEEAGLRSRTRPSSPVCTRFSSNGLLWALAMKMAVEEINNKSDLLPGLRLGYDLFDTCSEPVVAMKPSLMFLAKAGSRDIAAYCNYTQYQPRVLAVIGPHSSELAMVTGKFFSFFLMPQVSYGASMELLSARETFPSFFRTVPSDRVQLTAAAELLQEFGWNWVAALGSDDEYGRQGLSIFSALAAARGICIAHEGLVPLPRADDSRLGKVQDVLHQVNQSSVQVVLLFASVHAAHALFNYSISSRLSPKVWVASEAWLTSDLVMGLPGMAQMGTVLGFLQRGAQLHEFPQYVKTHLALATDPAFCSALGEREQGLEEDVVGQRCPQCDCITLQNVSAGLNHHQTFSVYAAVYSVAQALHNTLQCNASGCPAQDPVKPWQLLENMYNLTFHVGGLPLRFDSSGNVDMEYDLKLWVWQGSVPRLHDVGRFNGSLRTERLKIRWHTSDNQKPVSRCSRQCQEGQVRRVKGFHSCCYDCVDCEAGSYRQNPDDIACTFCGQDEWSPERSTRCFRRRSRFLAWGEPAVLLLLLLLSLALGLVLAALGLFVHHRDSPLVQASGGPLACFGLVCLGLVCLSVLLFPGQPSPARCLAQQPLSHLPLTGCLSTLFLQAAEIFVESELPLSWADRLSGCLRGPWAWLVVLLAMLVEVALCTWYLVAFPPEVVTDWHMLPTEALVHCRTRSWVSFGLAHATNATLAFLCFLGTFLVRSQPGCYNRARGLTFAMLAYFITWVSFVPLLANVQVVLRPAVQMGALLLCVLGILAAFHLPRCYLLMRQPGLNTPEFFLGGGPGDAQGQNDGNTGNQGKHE
Put plainly: Umami taste enhancement activity assay (EC50 ratio vs. MSG, FLIPR). To be noted: for Ec50 ratio (vs. MSG): Table A. The format is cell-based. As to the method: A series of measurements of the dose response is run in solutions comprising MSG alone, then a second dose response is run with MSG in combination with predetermined amounts of a candidate compound of Formula (I) at the same time.
Typical compound concentrations tested were 30 μM, 10 μM, 3 μM, 1 μM, 0.3 μM, 0.1 μM and 0.03 μM. The relative efficacy of compounds of Formula (I) at enhancing the receptor was determined by calculating the magnitude of a shift in the EC50 for monosodium glutamate. Enhancement was defined as a ratio (EC50R) corresponding to the EC50 of monosodium glutamate, determined in the absence of the test compound, divided by the EC50 of monosodium glutamate, determined in the presence of the test compound.
Stated alternatively, “EC50 ratio” as compared to MSG is calculated based on the following definitions: EC50 Ratio vs. MSG=EC50 (MSG)/EC50 (MSG+[Compound]) • wherein “[compound]” refers to the concentration of the compound of Formula (I) used to elicit (or enhance or potentiate) the MSG dose response.

In data set [2] the target is T1, hT1R1/hT1R3 umami receptor expressed in an HEK293 cell line. Put plainly: In vitro hT1R1/hT1R3 umami taste receptor activation assay (FLIPR, dose response). The format is cell-based. On the procedure: Activity was determined using an automated fluorometric imaging assay on a FLIPR instrument ([…], Molecular Devices, Sunnyvale, Calif.) (designated FLIPR assay). […] After replacement with 25 μl D-PBS, stimulation was performed in the FLIPR instrument and at room temperature by the addition of 25 μl D-PBS supplemented with different stimuli at concentrations corresponding to twice the desired final level. Receptor activity was quantified by determining the maximal fluorescence increases (using a 480 nm excitation and 535 nm emission) after normalization to basal fluorescence intensity measured before stimulation.
Activities were normalized to the response obtained with 60 mM monosodium glutamate, a concentration that elicits maximum receptor response.

Setting [3] is: read-out: EC50 for activation of a hT1R1/hT1R3 umami receptor expressed in an HEK293 cell line.
Setting [4] is: Table A, triazoles, read-out: Umami EC50.

Turning to `Cc1cc(-c2nc(SCCc3ccccn3)n[nH]2)oc1C` [Example 8, 2-(2-(5-(4,5-dimethylfuran-2-yl)-1H-1,2,4-triazol-3-ylthio)ethyl)pyridine], in data set [1] (compound present at 0.1 μM), the “EC50 ratio (enhanced the effectiveness of monosodium glutamate)” value was determined as 2.66. Further, the EC50 in data set [2] (setting [3]) came to 1870 nM.

Turning to `COc1cc(OC)cc(-c2n[nH]c(SCCc3ccccn3)n2)c1` [Example A20, 2-(2-(5-(3,5-dimethoxyphenyl)-2H-1,2,4-triazol-3-ylthio)ethyl)pyridine], in data set [1] (@ 0.3 μM compound), the “Ec50 ratio (vs. MSG)” value is 4.84. The EC50 in data set [2] (setting [4]) worked out at 7370 nM.

Regarding `Cc1cc(-c2nc(SCc3ccccn3)n[nH]2)oc1C` [Example 5, 2-((5-(4,5-dimethylfuran-2-yl)-1H-1,2,4-triazol-3-ylthio)methyl)pyridine], the “EC50 ratio (enhanced the effectiveness of monosodium glutamate)” value in data set [1] (compound present at 0.1 μM) was found to be 4.4. In data set [2] (setting [3]), the EC50 is 580 nM.

As for `c1ccc(-c2n[nH]c(SCc3ccccn3)n2)cc1` [Example A17, 2-((5-phenyl-2H-1,2,4-triazol-3-ylthio)methyl)pyridine], the “Ec50 ratio (vs. MSG)” value in data set [1] (@ 0.3 μM compound) is reported as 3.02. Also, the EC50 in data set [2] (setting [4]) was found to be 2890 nM.

Regarding `COc1ccc(-c2n[nH]c(SCc3ccccn3)n2)c(OC)c1` [Example A4, 2-((5-(2,4-dimethoxyphenyl)-2H-1,2,4-triazol-3-ylthio)methyl)pyridine], the “Ec50 ratio (vs. MSG)” value in data set [1] (@ 0.1 μM compound) is on record as 6.22. In data set [2] (setting [4]), the EC50 was found to be 370 nM.

In the case of `Cc1ccccc1-c1n[nH]c(SCc2ccccn2)n1` [Example A12, 2-((5-o-tolyl-2H-1,2,4-triazol-3-ylthio)methyl)pyridine], the “Ec50 ratio (vs. MSG)” value in data set [1] (@ 0.1 μM compound) was determined as 1.97. The EC50 in data set [2] (setting [4]) worked out at 1860 nM.

As usually defined, the melting point is the temperature, or range, at which the solid turns liquid. In the case of `Cc1ccc(-c2nc(SCc3ccccn3)n[nH]2)c(C)c1` [Example 3, 2-((5-(2,4-dimethylphenyl)-1H-1,2,4-triazol-3-ylthio)methyl)pyridine], the melting point was 112 to 114 °C. Further, the “EC50 ratio (enhanced the effectiveness of monosodium glutamate)” value in data set [1] (compound present at 0.01 μM) came to 4.3. Besides, the EC50 in data set [2] (setting [3]) is 90 nM.

Turning to `CCc1ccc(-c2nc(SCc3ccccn3)n[nH]2)cc1` [Example 4, 2-((5-(4-Ethylphenyl)-1H-1,2,4-triazol-3-ylthio)methyl)pyridine], the “EC50 ratio (enhanced the effectiveness of monosodium glutamate)” value in data set [1] (compound present at 0.03 μM) is given as 4.4. For the same compound, the EC50 in data set [2] (setting [3]) is 140 nM.

Turning to `Clc1cccc(-c2n[nH]c(SCc3ccccn3)n2)c1` [Example A15, 2-((5-(3-chlorophenyl)-2H-1,2,4-triazol-3-ylthio)methyl)pyridine], the “Ec50 ratio (vs. MSG)” value in data set [1] (@ 0.1 μM compound) was 2. Besides, in data set [2] (setting [4]), the EC50 is 2540 nM.

Regarding `c1ccc(CSc2n[nH]c(-c3cc4ccccc4o3)n2)nc1` [Example 6], in data set [1] (compound present at 0.1 μM), the “EC50 ratio (enhanced the effectiveness of monosodium glutamate)” value was determined as 2.88. In data set [2] (setting [3]), the EC50 was found to be 2580 nM.

For `c1ccc(CSc2nc(-c3ccc4c(c3)OCO4)n[nH]2)nc1` [Example A10, 2-((5-(benzo[d][1,3]dioxol-5-yl)-2H-1,2,4-triazol-3-ylthio)methyl)pyridine], the “Ec50 ratio (vs. MSG)” value in data set [1] (@ 0.3 μM compound) came to 6.01. The EC50 in data set [2] (setting [4]) amounted to 1180 nM.

Consider `COc1cc(C)ccc1-c1nc(SCc2ccccn2)n[nH]1` [Example 1, 2-((5-(2-methoxy-4-methylphenyl)-1H-1,2,4-triazol-3-ylthio)methyl)pyridine], for which the “EC50 ratio (enhanced the effectiveness of monosodium glutamate)” value in data set [1] (compound present at 0.03 μM) came to 5.9. Further, the EC50 in data set [2] (setting [3]) was determined as 80 nM.

`CCOc1ccc(-c2n[nH]c(SCc3ccccn3)n2)cc1` [Example A7, 2-((5-(4-ethoxyphenyl)-2H-1,2,4-triazol-3-ylthio)methyl)pyridine]: the “Ec50 ratio (vs. MSG)” value in data set [1] (@ 0.03 μM compound) stood at 2.33. For the same compound, the EC50 in data set [2] (setting [4]) amounted to 740 nM.

On to `COc1cccc(-c2n[nH]c(SCc3ccccn3)n2)c1OC` [Example A2, 2-((5-(2,3-dimethoxyphenyl)-2H-1,2,4-triazol-3-ylthio)methyl)pyridine], for which, in data set [1] (@ 0.01 μM compound), the “Ec50 ratio (vs. MSG)” value came to 1.9. The EC50 in data set [2] (setting [4]) worked out at 180 nM.

Turning to `Cc1cc(-c2nc(SCc3ccccn3)n[nH]2)c(C)o1` [Example 7, 2-((5-(2,5-dimethylfuran-3-yl)-1H-1,2,4-triazol-3-ylthio)methyl)pyridine], the “EC50 ratio (enhanced the effectiveness of monosodium glutamate)” value in data set [1] (compound present at 0.1 μM) is given as 2.1. In data set [2] (setting [3]), the EC50 worked out at 2070 nM.

As for `COc1ccc(-c2n[nH]c(SCc3ccccn3)n2)c(C)c1` [Example A3, 2-((5-(4-methoxy-2-methylphenyl)-2H-1,2,4-triazol-3-ylthio)methyl)pyridine], in data set [1] (@ 0.3 μM compound), the “Ec50 ratio (vs. MSG)” value is 2.01. For the same compound, the EC50 in data set [2] (setting [4]) came to 240 nM.

For `COc1cc(OC)cc(-c2n[nH]c(SCc3ccccn3)n2)c1` [Example A16, 2-((5-(3,5-dimethoxyphenyl)-2H-1,2,4-triazol-3-ylthio)methyl)pyridine], the “Ec50 ratio (vs. MSG)” value in data set [1] (@ 0.3 μM compound) amounted to 3.16. Also, the EC50 in data set [2] (setting [4]) came out at 2580 nM.

For the compound `CC(C)c1ccc(-c2n[nH]c(SCc3ccccn3)n2)cc1` [Example A5, 2-((5-(4-isopropylphenyl)-2H-1,2,4-triazol-3-ylthio)methyl)pyridine], in data set [1] (@ 0.03 μM compound), the “Ec50 ratio (vs. MSG)” value is 1.5. Also, the EC50 in data set [2] (setting [4]) turned out to be 420 nM.

For the compound `CCOc1ccccc1-c1n[nH]c(SCc2ccccn2)n1` [Example A19, 2-((5-(2-ethoxyphenyl)-2H-1,2,4-triazol-3-ylthio)methyl)pyridine], the “Ec50 ratio (vs. MSG)” value in data set [1] (@ 0.3 μM compound) was 2.01. Besides, in data set [2] (setting [4]), the EC50 worked out at 6490 nM.

With `COc1ccccc1-c1n[nH]c(SCc2ccccn2)n1` [Example A13, 2-((5-(2-methoxyphenyl)-2H-1,2,4-triazol-3-ylthio)methyl)pyridine], the “Ec50 ratio (vs. MSG)” value in data set [1] (@ 0.3 μM compound) is recorded as 7.36. Also, the EC50 in data set [2] (setting [4]) was 2120 nM.

`Cc1ccc(-c2n[nH]c(SCc3ccccn3)n2)cc1` [Example A1, 2-((5-p-tolyl-2H-1,2,4-triazol-3-ylthio)methyl)pyridine]: the “Ec50 ratio (vs. MSG)” value in data set [1] (@ 0.01 μM compound) is recorded as 2.19. For the same compound, in data set [2] (setting [4]), the EC50 was 170 nM.
